Assay [1] concerns the target Thrombin and coagulation factor X (Homo sapiens) (UniProt P00734+P00742). In words: Anticoagulant potency against double prothrombin time. Type of assay: functional.
The target of assay [2] is Coagulation factor X (Homo sapiens) (UniProt P00742). In words: Binding affinity as apparent association constant for human coagulation factor X.
Assay [3] has as its target Plasminogen (Homo sapiens) (UniProt P00747). Briefly: Binding affinity as apparent association constant for Plasmin.
Assay [4] deals with Serine protease 1 (Homo sapiens) (UniProt P07477). In words: Binding affinity as apparent association constant for Trypsin.
Assay [5] addresses Urokinase-type plasminogen activator (Homo sapiens) (UniProt P00749). Briefly: Binding affinity as apparent association constant for Urokinase.
Assay [6] deals with Prothrombin (Homo sapiens) (UniProt P00734). In words: Binding affinity as apparent association constant for Coagulation factor II.
Assay [7] deals with Tissue-type plasminogen activator (Homo sapiens) (UniProt P00750). In words: Binding affinity as apparent association constant for Tissue plasminogen activator.
Tissue-type plasminogen activator (Homo sapiens), sequence (P00750 36-562 limits assumed): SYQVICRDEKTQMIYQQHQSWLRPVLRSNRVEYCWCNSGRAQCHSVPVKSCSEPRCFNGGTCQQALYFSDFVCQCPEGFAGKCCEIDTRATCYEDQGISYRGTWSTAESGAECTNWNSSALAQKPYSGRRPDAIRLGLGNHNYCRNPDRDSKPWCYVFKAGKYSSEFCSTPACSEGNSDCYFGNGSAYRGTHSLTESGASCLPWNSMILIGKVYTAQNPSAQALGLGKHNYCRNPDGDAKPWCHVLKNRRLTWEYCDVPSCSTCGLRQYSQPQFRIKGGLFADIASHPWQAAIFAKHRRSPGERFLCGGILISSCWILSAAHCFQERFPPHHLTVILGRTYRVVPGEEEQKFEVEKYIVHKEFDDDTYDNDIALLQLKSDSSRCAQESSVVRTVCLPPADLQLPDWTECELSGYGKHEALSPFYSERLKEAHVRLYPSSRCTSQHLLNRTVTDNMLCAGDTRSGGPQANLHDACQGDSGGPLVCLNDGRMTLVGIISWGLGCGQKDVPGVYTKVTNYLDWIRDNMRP

Coagulation factor X (Homo sapiens), sequence (P00742 41-179 limits assumed): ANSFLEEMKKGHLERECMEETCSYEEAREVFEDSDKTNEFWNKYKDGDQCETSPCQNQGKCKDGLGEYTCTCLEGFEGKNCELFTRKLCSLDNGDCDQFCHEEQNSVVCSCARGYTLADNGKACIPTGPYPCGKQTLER
Coagulation factor X (Homo sapiens), sequence (P00742 235-488 limits assumed): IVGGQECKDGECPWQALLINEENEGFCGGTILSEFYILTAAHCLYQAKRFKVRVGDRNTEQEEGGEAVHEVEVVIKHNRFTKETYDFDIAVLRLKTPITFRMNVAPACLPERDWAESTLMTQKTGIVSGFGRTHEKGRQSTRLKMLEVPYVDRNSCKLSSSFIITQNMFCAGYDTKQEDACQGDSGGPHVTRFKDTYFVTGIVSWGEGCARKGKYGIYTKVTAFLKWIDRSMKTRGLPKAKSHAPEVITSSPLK
Thrombin and coagulation factor X (Homo sapiens), sequence (P00742 whole entry, looked up, other chains not shown): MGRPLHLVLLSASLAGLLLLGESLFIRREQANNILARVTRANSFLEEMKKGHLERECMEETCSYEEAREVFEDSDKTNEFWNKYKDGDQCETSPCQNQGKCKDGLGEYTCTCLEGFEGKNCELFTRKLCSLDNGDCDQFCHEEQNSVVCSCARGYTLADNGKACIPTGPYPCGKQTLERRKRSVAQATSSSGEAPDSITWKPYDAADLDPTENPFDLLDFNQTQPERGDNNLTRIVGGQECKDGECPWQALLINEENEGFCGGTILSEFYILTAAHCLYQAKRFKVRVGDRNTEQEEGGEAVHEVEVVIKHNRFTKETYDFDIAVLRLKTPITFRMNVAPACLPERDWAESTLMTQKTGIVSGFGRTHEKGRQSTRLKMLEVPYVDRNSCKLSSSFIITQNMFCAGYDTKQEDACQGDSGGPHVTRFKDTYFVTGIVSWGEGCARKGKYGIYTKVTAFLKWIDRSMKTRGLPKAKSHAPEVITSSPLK
Serine protease 1 (Homo sapiens), sequence (P07477 whole entry): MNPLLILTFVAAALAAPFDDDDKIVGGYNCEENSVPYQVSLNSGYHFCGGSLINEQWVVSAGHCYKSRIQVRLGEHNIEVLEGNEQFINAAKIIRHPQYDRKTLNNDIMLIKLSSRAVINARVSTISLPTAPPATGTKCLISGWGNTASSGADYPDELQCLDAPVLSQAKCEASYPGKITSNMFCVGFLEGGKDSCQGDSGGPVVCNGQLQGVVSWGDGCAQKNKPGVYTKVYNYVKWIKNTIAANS
Plasminogen (Homo sapiens), sequence (P00747 97-580 limits assumed): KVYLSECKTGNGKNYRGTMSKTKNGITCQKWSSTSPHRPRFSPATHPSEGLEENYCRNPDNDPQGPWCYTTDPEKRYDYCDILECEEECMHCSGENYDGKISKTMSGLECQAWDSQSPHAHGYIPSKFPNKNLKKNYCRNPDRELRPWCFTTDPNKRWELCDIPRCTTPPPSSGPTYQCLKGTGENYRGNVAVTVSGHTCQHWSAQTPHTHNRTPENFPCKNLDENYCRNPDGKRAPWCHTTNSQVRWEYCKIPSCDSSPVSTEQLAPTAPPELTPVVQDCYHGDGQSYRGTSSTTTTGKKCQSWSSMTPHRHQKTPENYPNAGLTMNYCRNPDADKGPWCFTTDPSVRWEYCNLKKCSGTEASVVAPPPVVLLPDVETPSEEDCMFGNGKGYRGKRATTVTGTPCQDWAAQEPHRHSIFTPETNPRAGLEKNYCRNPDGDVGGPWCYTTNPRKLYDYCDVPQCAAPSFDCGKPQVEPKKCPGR
Plasminogen (Homo sapiens), sequence (P00747 581-810 limits assumed): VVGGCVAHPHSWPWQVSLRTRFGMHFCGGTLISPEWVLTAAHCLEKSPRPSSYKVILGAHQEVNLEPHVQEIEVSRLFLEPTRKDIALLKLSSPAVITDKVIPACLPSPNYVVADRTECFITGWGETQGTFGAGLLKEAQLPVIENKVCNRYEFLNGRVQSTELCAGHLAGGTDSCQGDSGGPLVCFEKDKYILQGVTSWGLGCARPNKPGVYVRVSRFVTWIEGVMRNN

As to `Nc1cccc(C(=O)Nc2ccccc2NC(=O)OCC2CCN(c3ccncc3)CC2)c1`, in assay [1], the PT worked out at 8 µM. The K ass in assay [2] came to 5.1e+06 L/mol.

In the case of `O=C(Nc1ccccc1NC(=O)C1=CCCCC1)OCC1CCN(c2ccncc2)CC1`, the K ass in assay [2] came out at 900000 L/mol.

For `O=C(Nc1ccccc1NC(=O)c1cccc(Cl)c1)OCC1CCN(c2ccncc2)CC1`, in assay [1], the PT turned out to be 12 µM. Also, the K ass in assay [2] was 4.1e+06 L/mol.

Turning to `O=C(Nc1ccccc1NC(=O)C1CCCCC1)OCC1CCN(c2ccncc2)CC1`, in assay [2], the K ass came out at 40000 L/mol.

In assay [1], `COc1cccc(C(=O)Nc2ccccc2NC(=O)OCC2CCN(c3ccncc3)CC2)c1` gave a PT of 10 µM. Also, the K ass in assay [2] came to 3.3e+06 L/mol.

`COc1ccc(C(=O)Nc2ccccc2NC(=O)c2ccc(C(C)(C)C)cc2)cc1`: the PT in assay [1] is above 50 µM. The K ass in assay [2] was 7e+06 L/mol.

In the case of `COc1ccc(C(=O)Nc2ccccc2NC(=O)OCC2CCN(c3ccncc3)CC2)cc1F`, in assay [1], the PT was 1.1 µM. In assay [2], the K ass came out at 46 L/mol.

Consider `O=C(Nc1ccccc1NC(=O)c1ccc(OC(F)F)cc1)OCC1CCN(c2ccncc2)CC1`, for which, in assay [1], the PT is 6 µM. In addition, the K ass in assay [2] was found to be 5e+06 L/mol.

Consider `O=C(Nc1ccccc1NC(=O)C1=CCCC1)OCC1CCN(c2ccncc2)CC1`, for which the K ass in assay [2] worked out at 700000 L/mol.

As to `O=C(Nc1ccccc1NC(=O)c1ccc(Cl)o1)OCC1CCN(c2ccncc2)CC1`, the K ass in assay [2] turned out to be 700000 L/mol.

The compound `COc1ccc(C(=O)Nc2ccccc2NC(=O)OCC2CCN(c3ccncc3)CC2)cc1` displayed a PT in assay [1] of 1.9 µM. In assay [2], the K ass came out at 1.9e+07 L/mol.

Turning to `O=C(Nc1ccccc1NC(=O)c1ccc(Br)cc1)OCC1CCN(c2ccncc2)CC1`, the PT in assay [1] turned out to be 1.8 µM. The K ass in assay [2] is 3.8e+07 L/mol.

In assay [1], `CC(C)(C)c1ccc(C(=O)Nc2ccccc2NC(=O)c2cccc(C(=N)N)c2)cc1` showed a PT of 0.9 µM. Further, in assay [2], the K ass came to 2.42e+08 L/mol.

On to `O=C(Nc1ccccc1NC(=O)c1ccc(Cl)s1)OCC1CCN(c2ccncc2)CC1`, for which the PT in assay [1] is 2.6 µM. The K ass in assay [2] was determined as 3.3e+07 L/mol.

`Cc1ccc(C(=O)Nc2ccccc2NC(=O)OCC2CCN(c3ccncc3)CC2)cc1Cl` displayed a PT in assay [1] of 22 µM. Moreover, the K ass in assay [2] amounted to 2.3e+06 L/mol.

On to `Cc1cccc(C(=O)Nc2ccccc2NC(=O)OCC2CCN(c3ccncc3)CC2)c1`, for which the K ass in assay [2] was 5.9e+06 L/mol.

`O=C(Nc1ccccc1NC(=O)c1cccc(F)c1)OCC1CCN(c2ccncc2)CC1` gave a PT in assay [1] of 17 µM. In addition, the K ass in assay [2] was determined as 2.5e+06 L/mol.

`COc1ccc(C(=O)Nc2ccccc2NC(=O)C2CCN(c3ccncc3)CC2)cc1` gave a PT in assay [1] of 9.7 µM. Besides, the K ass in assay [2] amounted to 2e+06 L/mol.

Consider `O=C(Nc1ccccc1NC(=O)c1ccc(I)cc1)OCC1CCN(c2ccncc2)CC1`, for which, in assay [1], the PT stood at 6 µM. Moreover, the K ass in assay [2] amounted to 1.4e+07 L/mol.

With `O=C(Nc1ccccc1NC(=O)c1ccccc1)OCC1CCN(c2ccncc2)CC1`, in assay [2], the K ass is 1.6e+06 L/mol.

With `O=C(Nc1ccccc1NC(=O)c1ccc2cc[nH]c2c1)OCC1CCN(c2ccncc2)CC1`, the PT in assay [1] was 1.6 µM. Moreover, the K ass in assay [2] was 5.4e+07 L/mol.

For `O=C(Nc1ccccc1NC(=O)c1cccc(Cl)c1Cl)OCC1CCN(c2ccncc2)CC1`, the PT in assay [1] is 5 µM. The K ass in assay [2] was found to be 1.9e+07 L/mol.

For the compound `O=C(Nc1ccccc1NC(=O)C1C=CCCC1)OCC1CCN(c2ccncc2)CC1` (stereo unspecified), the K ass in assay [2] came to 200000 L/mol.

As for `O=C(Nc1ccccc1NC(=O)c1ccc2c(c1)CCO2)OCC1CCN(c2ccncc2)CC1`, the K ass in assay [2] was determined as 600000 L/mol.

As to `O=C(Nc1ccccc1NC(=O)c1ccccc1Cl)OCC1CCN(c2ccncc2)CC1`, the K ass in assay [2] was 300000 L/mol.

For `O=C(Nc1ccccc1NC(=O)c1cccc(O)c1)OCC1CCN(c2ccncc2)CC1`, the K ass in assay [2] worked out at 1e+06 L/mol.

Take `O=C(Nc1ccccc1NC(=O)c1ccc(Cl)cc1)OCC1CCN(c2ccncc2)CC1`: the Ka was below 10000 L/mol in assay [3]; below 10000 L/mol in assay [4]; below 10000 L/mol in assay [5]; 20000 L/mol in assay [6]; below 10000 L/mol in assay [7]. The compound also came in with a PT in assay [1] of 1.9 µM. Further, the K ass in assay [2] is 3.5e+07 L/mol.

For `O=C(Nc1ccccc1NC(=O)c1ccc(F)cc1)OCC1CCN(c2ccncc2)CC1`, the K ass in assay [2] worked out at 4.6e+06 L/mol.

As for `Cc1ccc(C(=O)Nc2ccccc2NC(=O)OCC2CCN(c3ccncc3)CC2)cc1F`, the PT in assay [1] is 7 µM. Besides, the K ass in assay [2] was determined as 5.8e+06 L/mol.

As for `COc1ccccc1C(=O)Nc1ccccc1NC(=O)OCC1CCN(c2ccncc2)CC1`, the K ass in assay [2] is 20000 L/mol.

The compound `Cc1ccc(C(=O)Nc2ccccc2NC(=O)OCC2CCN(c3ccncc3)CC2)cc1` yielded a PT in assay [1] of 8 µM. In addition, the K ass in assay [2] amounted to 6.3e+06 L/mol.

`N#Cc1ccc(C(=O)Nc2ccccc2NC(=O)OCC2CCN(c3ccncc3)CC2)cc1`: in assay [2], the K ass was 600000 L/mol.

Source of the values: ChEMBL document CHEMBL1143475, “Investigation of factor Xa inhibitors containing non-amidine S1 elements” (Bioorg Med Chem Lett, 2005).
